Patent publication US9040545B2, “Heterocyclyl pyrazolopyrimidine analogues as selective JAK inhibitors” (Cellzome Limited, priority 2010, dated 2015)
pIC50: −log10 of the molar value.

Molecular target: T1, Aurora B (Homo sapiens, UniProt Q96GD4)
T1 construct: cell lysates from Jurkat cells (ATCC TIB-152) used; endogenous in cells; host or cells: Jurkat cells (ATCC TIB-152), treated with pervanadate
Assay: Kinobeads assay, Aurora B
Type: binding
Settings: for pIC50: lysate of pervanadate-treated Jurkat cells, read-out: Inhibition values (IC50) Aur B

T1 sequence (Q96GD4 whole entry): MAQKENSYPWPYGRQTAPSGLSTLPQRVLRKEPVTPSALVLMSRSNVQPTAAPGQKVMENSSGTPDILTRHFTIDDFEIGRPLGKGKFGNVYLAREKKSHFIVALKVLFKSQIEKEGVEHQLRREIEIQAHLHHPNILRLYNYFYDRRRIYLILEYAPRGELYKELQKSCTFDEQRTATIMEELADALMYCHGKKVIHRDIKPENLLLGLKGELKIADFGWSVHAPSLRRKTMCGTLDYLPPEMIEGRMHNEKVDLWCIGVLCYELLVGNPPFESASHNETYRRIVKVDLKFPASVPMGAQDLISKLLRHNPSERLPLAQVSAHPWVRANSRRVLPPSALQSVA

JAK3/AurB Fold Selectivity	pIC50	Structure (SMILES)
>50 Fold	6.00 to 7.00	Cn1cc(-c2cccc(Cn3ncc4cnc(Nc5cnn(CCO)c5)nc43)c2)cn1 [Example 122, 2-(4-((1-(3-(1-methyl-1H-pyrazol-4-yl)benzyl)-1H-pyrazolo[3,4-d]pyrimidin-6-yl)amino)-1H-pyrazol-1-yl)ethanol]
10-50 Fold	6.00 to 7.00	Cn1cc(Nc2ncc3cnn(Cc4c(F)c(F)cc(N5CCOCC5)c4F)c3n2)cn1 [Example 17, N-(1-Methyl-1H-pyrazol-4-yl)-1-(2,3,6-trifluoro-5-morpholinobenzyl)-1H-pyrazolo[3,4-d]pyrimidin-6-amine]
>50 Fold	≤ 5.00	CC(C)n1cc(-c2cccc(Cn3ncc4cnc(Nc5cnn(C)c5)nc43)c2)cn1 [Example 117, 1-(3-(1-isopropyl-1H-pyrazol-4-yl)benzyl)-N-(1-methyl-1H-pyrazol-4-yl)-1H-pyrazolo[3,4-d]pyrimidin-6-amine]
>50 Fold	≤ 5.00	OCCn1cc(Nc2ncc3cnn(Cc4cc(F)cc(N5CCNCC5)c4F)c3n2)cn1 [Example 96, 2-(4-((1-(2,5-difluoro-3-(piperazin-1-yl)benzyl)-1H-pyrazolo[3,4-d]pyrimidin-6-yl)amino)-1H-pyrazol-1-yl)ethanol]
